According to patent US11939294B1 (priority 2023, dated 2024):

System: multidrug-resistant (MDR) strains of Mycobacterium tuberculosis
Test: microbe, parasite or virus in culture
Type: cell-based
Settings: 192 h, read-out: MIC (μg/mL) MDR-TB, MDR-TB: resistant at least to isoniazid and rifampicin, REMA, 8 days incubation at 37° C.

`Cc1cc(C)c[n+](CC(=O)c2ccc(F)cc2)c1.[Br-]` [Compound 3d, 1-(2-(4-Fluorophenyl)-2-oxoethyl)-3,5-dimethylpyridin-1-ium bromide] gave an MIC of roughly 8 µg/mL.
